Data as given in patent publication US20220041559A1, “BENZO-AND PYRIDO-PYRAZOLES AS PROTEIN KINASE INHIBITORS” (ROTTAPHARM BIOTECH S.R.L., priority 2019, published 2022).

Columns and labels:
VEGFR = target: T1, VEGFR (Homo sapiens, UniProt P35968); assay: Inhibition of VEGF-induced VEGFR (Y1175)-phosphorylation (cell-based assay, HUVEC-C); conditions: VEGF 50 ng/ml, Western blot
T1 construct: endogenous in cells; host or cells: HUVEC-C
Protocol: HUVEC-C cells (Human Umbilical Vein Endothelial Cells from ATCC) were plated at 6×10^4 cells/well in 24 w microplates and grown adherent in medium F12K+0.1 mg/ml Heparin+0.05 mg/ml ECGS+10% FBS at 37° C. with 5% CO2. After 24 h, medium was removed and starvation was induced overnight in medium F12K+0.1 mg/ml Heparin+0.5% FBS (medium starvation). At the end of incubation, treatment of cells was performed by medium replacement and by adding fresh medium containing or not diluent or test compounds (DMSO 0.1% final concentration) diluted in medium starvation. After 1 hour, VEGF stimuli (diluted in medium starvation, 50 ng/ml final concentration) was added to each sample, with the exception of basal sample; plate was then incubated for 5 min at 37° C. with 5% CO2. At the end of the incubation, the medium was removed and cellular lysates were obtained by adding M-PER lysis buffer containing 1× Protease/Phosphatase inhibitors cocktail. Then, lysates were transferred into Eppendorf tubes, sonicated and stored at −80° C.
Lysates were analyzed by Western blot for VEGFR phosphorylation (Tyrosine 1175) and total receptor amount determination. Densitometric analysis of sample lanes were performed by ImageQuant TL software (GE Healthcare Life Sciences). […]

U87MG-luc tumor cells = assay: Reduction of tumor growth in intracranial U87MG-luc glioblastoma bearing mice; assay type: in vivo, athymic Nude mice; conditions: 50 mg/kg orally once a day, days 9-19
Protocol: Human U87MG cells (Glioblastoma Cancer cell line) were engineered to express the luciferase gene (U87MG-luc). Cultured U87MG-luc tumor cells were intracranially injected in athymic Nude mice. Eight days from injection mice were randomised on the basis of luminescence values emitted by luciferase-expressing U87M-luc tumor cells and divided into 2 treatment groups. The treatment started on day 9 and lasted 10 days. Mice were orally dosed with vehicle or with compound 5 of invention (50 mg/kg, once a day). The tumor growth was evaluated by real-time Bioluminescence Imaging at the end of the treatments period (day 19) and on day 26 and 33, form the cell injection. The tumour growth was reduced in mice treated with compound 5 compared to mice treated with vehicle alone.

T1 sequence (P35968 20-1356): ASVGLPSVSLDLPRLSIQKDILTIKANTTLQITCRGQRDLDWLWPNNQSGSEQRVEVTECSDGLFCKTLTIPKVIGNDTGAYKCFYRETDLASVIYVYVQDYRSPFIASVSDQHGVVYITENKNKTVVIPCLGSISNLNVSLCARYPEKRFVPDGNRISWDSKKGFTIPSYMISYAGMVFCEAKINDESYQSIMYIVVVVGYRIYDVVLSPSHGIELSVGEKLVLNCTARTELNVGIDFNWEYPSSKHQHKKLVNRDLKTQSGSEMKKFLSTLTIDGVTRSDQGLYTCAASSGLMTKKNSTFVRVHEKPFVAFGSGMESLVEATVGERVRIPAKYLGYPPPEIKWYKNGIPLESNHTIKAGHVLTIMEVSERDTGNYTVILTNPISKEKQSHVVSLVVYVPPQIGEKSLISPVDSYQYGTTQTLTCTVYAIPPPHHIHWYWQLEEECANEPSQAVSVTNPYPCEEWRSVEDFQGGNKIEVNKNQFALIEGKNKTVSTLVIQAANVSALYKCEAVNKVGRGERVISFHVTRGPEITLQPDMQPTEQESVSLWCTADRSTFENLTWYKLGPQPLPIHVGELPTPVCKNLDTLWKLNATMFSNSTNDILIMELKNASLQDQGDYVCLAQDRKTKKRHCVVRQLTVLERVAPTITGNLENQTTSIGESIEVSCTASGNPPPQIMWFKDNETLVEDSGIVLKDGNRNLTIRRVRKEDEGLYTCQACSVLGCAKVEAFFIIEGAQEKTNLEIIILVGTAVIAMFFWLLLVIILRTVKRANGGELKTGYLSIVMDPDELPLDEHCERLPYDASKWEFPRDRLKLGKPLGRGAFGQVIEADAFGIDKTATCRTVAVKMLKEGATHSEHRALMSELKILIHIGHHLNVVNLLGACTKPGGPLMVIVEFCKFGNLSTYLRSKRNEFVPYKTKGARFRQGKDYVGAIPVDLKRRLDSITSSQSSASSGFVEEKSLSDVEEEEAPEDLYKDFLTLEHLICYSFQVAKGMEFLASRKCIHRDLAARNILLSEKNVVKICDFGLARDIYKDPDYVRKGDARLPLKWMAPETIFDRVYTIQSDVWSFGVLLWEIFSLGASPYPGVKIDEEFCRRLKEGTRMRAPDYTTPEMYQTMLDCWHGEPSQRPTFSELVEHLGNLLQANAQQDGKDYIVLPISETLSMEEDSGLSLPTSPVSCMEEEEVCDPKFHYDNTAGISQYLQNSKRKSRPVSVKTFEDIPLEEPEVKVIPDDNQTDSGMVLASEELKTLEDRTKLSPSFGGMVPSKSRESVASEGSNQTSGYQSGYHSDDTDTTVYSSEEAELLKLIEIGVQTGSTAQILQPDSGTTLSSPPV

Compound: CN1CCC(c2ccc(C(=O)Nc3n[nH]c4nc(Nc5ccccc5F)ccc34)cc2)CC1 [Compound 5, N-(6-((2-fluorophenyl)amino)-1H-pyrazolo[3,4-b]pyridin-3-yl)-4-(1-methylpiperidin-4-yl)benzamide]
- Concentration from which maximal inhibitory activity on VEGFR-phosphorylation is shown (VEGFR): ≥ 1 µM
- inhibition of tumour growth (percentage of radiance inhibition) (U87MG-luc tumor cells; day 19): 24.9%
- inhibition of tumour growth (percentage of radiance inhibition) (U87MG-luc tumor cells; day 26): 34.4%
- inhibition of tumour growth (percentage of radiance inhibition) (U87MG-luc tumor cells; day 33): 60.4%
